Series [1] has as its system rat anti-GBM antiserum-administered nephritis model. Put plainly: Pharmacological effect in rat anti-GBM antiserum-administered nephritis model. Format: in vivo, rat (Wistar-Kyoto strain). The procedure:
Example Compound 1 or 2 was administered to a rat anti-GBM antiserum-administered nephritis model (Proceedings of the National Academy of Sciences of the United States of America, 2005, vol. 102, p. 7736-7741; European journal of pharmacology, 2002, vol. 449, p. 167-176), and the therapeutic effect of the nipecotic acid derivative (I) or a pharmaceutically acceptable salt thereof on chronic renal disease with glomerulonephritis and renal failure was evaluated. Rats (Wistar-Kyoto strain, male, 8 weeks old; Charles River Laboratories Japan, Inc.) with nephritis induced by administration of a rabbit anti-rat GBM antiserum prepared by methods described in documents (Proceedings of the National Academy of Sciences of the United States of America, 2005, vol. 102, p. 7736-7741; European journal of pharmacology, 2002, vol. 449, p. 167-176) into the tail vein were provided as “group with induced nephritis”. On the other hand, rats to which the anti-GBM antiserum was not administered were provided as “normal group”. Two weeks after administration of anti-GBM antiserum, blood was collected from the tail vein or jugular vein of each rat, and the sCre level was measured. The measurement of the sCre level was carried out by the enzymatic method. Two weeks after administration of anti-GBM antiserum, part of the rats were euthanized under anesthesia, and their kidneys were removed and immersed in formalin for storage. The formalin-fixed kidneys were embedded in paraffin, and sections were prepared. Pathological specimens (HE- and PAS-stained) were prepared therefrom, and histopathological examination was carried out. To rats showing pathological conditions of glomerulonephritis and renal failure in the group with induced nephritis, a suspension of Example Compound 1 in 0.5% aqueous methyl cellulose solution […] of anti-GBM antiserum until the end of the experiment. This group was provided as “Example Compound 1 (3 mg/kg)-administered group”. In addition, for comparative control, 0.5% aqueous methyl cellulose solution supplemented with 0.5% Tween 80 was similarly administered to rats in the group with induced nephritis, to provide “nephritis control group”. Similarly, 0.5% aqueous methyl cellulose solution supplemented with 0.5% Tween 80 was administered to the normal group. […] The serum Cys-C level was also measured at Week 5 after the administration of anti-GBM antiserum. The measurement of the serum Cys-C level was carried out using the antigen-antibody reaction. Five weeks after the administration of anti-GBM antiserum, the rats were euthanized under anesthesia. Kidneys were removed therefrom and immersed in formalin for storage. The formalin-fixed kidneys were embedded in paraffin, and sections were prepared. Histopathological specimens (HE- and PAS-stained) were prepared therefrom, and histopathological examination was carried out. […] The abscissa in the figure represents the number of weeks after the administration of anti-GBM antiserum, and the ordinate represents the sCre level (mean±standard error, n=6). The symbol “*” in the figure represents statistically significant difference from the nephritis control group (t-test, p<0.05). The results of histopathological examination of kidneys at Week 5 after the administration of anti-GBM antiserum are shown in FIG. 2, wherein the damaged areas in 30 to 40 glomeruli per individual were scored on a 4-point scale based on the ratio (%) of the lesion area (lesion area score: 1+, less than 25%; 2+, not less than 25% and less than 50%; 3+, not less than 50% and less than 75%; 4+, not less than 75%). Each individual corresponds to each bar, wherein the distribution of lesion area scores is shown. The ordinate in the figure represents the ratio of the lesion area score in each individual. Rats (Wistar-Kyoto strain, male, 10 weeks old; Charles River Laboratories Japan, Inc.) with glomerulonephritis induced by administration of an anti-GBM antiserum into the tail vein were provided as “group with induced nephritis”. […]

Series [2] has as its system rat monocrotaline-administered pulmonary hypertension model. Put plainly: Action on systemic blood pressure in rat monocrotaline-administered pulmonary hypertension model, single dose. It counts as in vivo, rat (SD strain). Particulars: single oral dose of 10 mg/kg on day 9 after monocrotaline; Hour 1, 2, 3, 4, 5 and 6 after administration. The procedure:
Example Compound 1 was administered to monocrotaline-administered pulmonary hypertension model rats in a single dose, and the action of the nipecotic acid derivative (I) or a pharmaceutically acceptable salt thereof on the systemic blood pressure from immediately after the administration was evaluated.
Pulmonary hypertension was induced in Rats (SD strain, male, 11 weeks old; Charles River Laboratories Japan, Inc.) by subcutaneous administration of an aqueous monocrotaline (Sigma Corporation) solution (60 mg/kg) to the back.
On Day 7 after administration of monocrotaline, the rats with induced pulmonary hypertension were anesthetized, and hair in the femoral region and the nape was removed, followed by disinfection of the operative field using Isodine solution. […] The blood pressure was analyzed after amplification by Blood Pressure Amplifier, and the heart rate was analyzed via Heart Rate Counter using the pulse waveform as a trigger. […] From immediately after administration of Example Compound 1 or 0.5% aqueous methyl cellulose solution supplemented with 0.5% Tween 80, the mean systemic blood pressure was measured at Hour 1, 2, 3, 4, 5 and 6 after administration.

The mark [3] stands for this setting: 3 mg/kg, 5 weeks after anti-GBM antiserum, 5 animals.

On to `CCC(=O)NC1(C(=O)N2CCC[C@@H](C(=O)NCc3ccc(C#N)cc3OC(F)(F)F)C2)CCC1` [Example Compound 1, (R)—N-(4-cyano-2-(trifluoromethoxy)benzyl)-1-(1-propionamidocyclobutanecarbonyl)piperidine-3-carboxamide], for which, in series [1] (3 mg/kg orally once per day from Week 2, Week 3 after anti-GBM antiserum, t-test p<0.05, FIG. 1), the “sCre level vs nephritis control group” value is “statistically significantly lower”. The “serum Cys-C level” value in series [1] (3 mg/kg orally once per day from Week 2, Week 5 after anti-GBM antiserum, mean±standard error, n=6) came out at 0.63 ± 0.08 mg/L. In addition, the “histopathological examination of kidneys, injurious changes vs nephritis control group” value in series [1] (3 mg/kg, 5 weeks after anti-GBM antiserum) was “lower degrees and frequencies of these injurious changes”. In series [1] (setting [3]), the “Basophilic tubules, Mild” value is recorded as 2 number of individuals; the “Basophilic tubules, Moderate” value is listed as 3 number of individuals; the “Dilatation of renal tubules, Mild” value is recorded as 1 number of individuals; the “Dilatation of renal tubules, Moderate” value is 4 number of individuals. Further, in series [1] (setting [3]), the “Glomerular sclerosis, Mild” value is listed as 0 number of individuals; the “Glomerular sclerosis, Moderate” value is 5 number of individuals; the “Glomerular sclerosis, Severe” value is reported as 0 number of individuals; the “Mild infiltration of mononuclear cells into the stroma” value is 5 number of individuals. For the same compound, in series [1] (setting [3]), the “Protein casts in outer medulla, Mild” value was 1 number of individuals; the “Protein casts in outer medulla, Moderate” value is reported as 4 number of individuals; the “Protein casts in outer medulla, Severe” value was 0 number of individuals. Also, the “scoring of the damaged area in glomeruli (lesion area score)” value in series [1] (3 mg/kg, Week 5 after anti-GBM antiserum, FIG. 2) is “suppression of glomerular injury”. The “mean systemic blood pressure vs pulmonary hypertension control group” value in series [2] is listed as “no significant difference”.

For the compound `CC(C)(NS(C)(=O)=O)C(=O)N1CCC[C@@H](C(=O)NCc2ccc(C#N)cc2OC(F)(F)F)C1` [Example Compound 2, (R)—N-(4-cyano-2-(trifluoromethoxy)benzyl)-1-(2-methyl-2-(methylsulfonamido)propanoyl)piperidine-3-carboxamide], the “sCre level vs nephritis control group” value in series [1] (10 mg/kg orally once per day from Week 2, Week 5 after anti-GBM antiserum, FIG. 3) is given as “remarkably lower”.
